Assay results reported in patent US5190741A, “Agents for diagnosing and treating melanomas, aromatic halogenated derivatives usable as such agents and their preparation” (Institut National de la Sante et de la Recherche Medicale …, priority 1989, dated 1993).
Like-named read-outs stand apart in the source and are kept apart here.

How the values were obtained:
[1] = system: Beu melanic human melanoma; experiment: Scintillation imaging, nu/nu SSCUP nude mice bearing Beu; format: in vivo; conditions: ^123 I label
Source text: (§1) The mice bearing grafted tumors are anesthetized by the i.p. injection of sodium pentobarbital 1/5 and immobilized under a scintillation camera (Gammatome II, CGR) equipped with a pinhole 3-360 collimator, sensitivity 3.2 10^-4.
nu/nu SSCUP nudes bearing human melanomas Beu and Dau.
(§2) The scanning observations have also been carried out after the injection of B into the following mice:
nu/nu SSCUP nudes bearing the Beu heterotransplant.

[2] = system: Beu melanic human melanoma; experiment: Autoradiograms, nu/nu SSCUP nude mice bearing Beu; format: in vivo
Procedure: (§3) The autoradiograms are carried out in mice bearing grafted melanomas:
b. nu/nu SSCUP nudes bearing heterotransplants of melanic (Beu) or amelanic (Dau) human melanomas).
(§4) The animals bearing grafted tumors receive the labelled compounds in the form of the hydrochloride in saline solution (3.7 to 5×10^5 Bq/animal) in a caudal vein. At different time intervals after the administration of the compounds (from 15 minutes to 24 hours) the mice are anesthetized with ether and plunged into liquid nitrogen.
(§5) 30 μm sections, parallel to a sagittal plane, are prepared in a freezing microtome (TS 260, SLEE) according to the protocol described by Ullberg.

[3] = system: 6 weeks old OF 1 male mice; experiment: LD50 determination, i.v. (Karber and Behrens); conditions: mouse, in vivo, iv
Source text: (§6) The determination of the LD50 is made in the mouse after i.v. injection of the molecules according to the methodology described by Karber and Behrens.
(§7) 6 weeks old OF 1 male mice

[4] = LD50 determination, i.v. (Karber and Behrens); conditions: mouse, in vivo, iv
Source text: as §6, §7

B16 melanoma = experiment: Scintillation imaging, C57 BL6 mice bearing B16; format: in vivo, mouse; conditions: ^123 I label
Source text: as §1
C57 BL6 bearing B16 melanomas at different stages of development.
as §2
C57 BL6 bearing the B16 melanoma

[5] = Tissue distribution in Swiss nu/nu SSCUP mice bearing Dau; format: in vivo, human; conditions: mouse, iv, 3 umol/animal
Procedure: The study of the tissue distribution of the ^125 I labelled compounds was performed in mice bearing grafted melanomas (cf. autoradiograms above). […] The animals are sacrificed at different time intervals of 1 to 24 hours after the injection. The blood is collected and the principal organs are excised. Aliquots are weighed and the radioactivity of the samples is measured in a […] 1191 counter (analytic tracer). The counting yield for iodine 125 is 60%. The results are expressed: as a percentage of the injected dose bound per g of tissue (% ID/g); in the form of the ratios [formula] This ratio reflects more precisely the selectivity of a molecule for an organ (tables 2, 4, 6, 8, 10 and 12).

B16 murine melanoma = experiment: Autoradiograms, C57 BL6 mice bearing B16; format: in vivo, mouse
Procedure: as §3
a. C57 BL6 bearing the B16 murine melanoma.
as §4, §5

[6] = LD50 determination, i.v. (Karber and Behrens); conditions: mouse, in vivo, iv; remark: listed apart in the source
Source text: as §6
(§8) 6 weeks old male nu/nu SSCUP nude mice, […]

[7] = system: 6 weeks old male nu/nu SSCUP nude mice; experiment: LD50 determination, i.v. (Karber and Behrens); conditions: mouse, in vivo, iv
Source text: as §6, §8

[8] = intestine, read-out: intestine % ID/g
[9] = kidney, read-out: kidney % ID/g
[10] = muscle, read-out: muscle % ID/g
[11] = pancreas, read-out: pancreas % ID/g
[12] = plasma, read-out: plasma % ID/g
[13] = spleen, read-out: spleen % ID/g
[14] = stomach, read-out: stomach % ID/g
[15] = submaxillary glands, read-out: submaxillary glands % ID/g

CCN(CC)CCNC(=O)c1ccc(I)cc1 [Derivative A, N-(2-diethylaminoethyl) 4-iodo benzamide]
images compared with ^125 I-A [1]: identical images | darkening of the film at the tumor ([2]; 1 to 4 h after i.v.): Identical images | tumor visibility on autoradiogram ([2]; 24 h after i.v.): we can no longer see darkening of the film | LD 0 [3]: 75 mg/kg | LD 100 [3]: 150 mg/kg | LD50 [4]: 125 mg/kg | images compared with ^125 I-A (B16 melanoma): identical images | tissue uptake at 1 h ([5]; blood, read-out: blood % ID/g): 0.89 %ID/g | tissue uptake at 2 h ([5]; blood, read-out: blood % ID/g): 0.52 %ID/g | tissue uptake at 4 h ([5]; blood, read-out: blood % ID/g): 0.29 %ID/g | tissue uptake at 6 h ([5]; blood, read-out: blood % ID/g): 0.23 %ID/g | tissue uptake at 24 h ([5]; blood, read-out: blood % ID/g): 0.008 %ID/g | tissue uptake at 8 h ([5]; blood, read-out: blood % ID/g): 0.14 %ID/g | tissue uptake at 12 h ([5]; blood, read-out: blood % ID/g): 0.06 %ID/g | tissue uptake at 1 h ([5]; brain, read-out: brain % ID/g): 1.4 %ID/g | tissue uptake at 2 h ([5]; brain, read-out: brain % ID/g): 0.99 %ID/g | tissue uptake at 4 h ([5]; brain, read-out: brain % ID/g): 0.51 %ID/g | tissue uptake at 6 h ([5]; brain, read-out: brain % ID/g): 0.2 %ID/g | tissue uptake at 24 h ([5]; brain, read-out: brain % ID/g): 0.002 %ID/g | tissue uptake at 8 h ([5]; brain, read-out: brain % ID/g): 0.12 %ID/g | tissue uptake at 12 h ([5]; brain, read-out: brain % ID/g): 0.02 %ID/g | tissue uptake at 1 h ([5]; eye, read-out: eye % ID/g): 0.68 %ID/g | tissue uptake at 2 h ([5]; eye, read-out: eye % ID/g): 0.54 %ID/g | tissue uptake at 4 h ([5]; eye, read-out: eye % ID/g): 0.31 %ID/g | tissue uptake at 6 h ([5]; eye, read-out: eye % ID/g): 0.16 %ID/g | tissue uptake at 24 h ([5]; eye, read-out: eye % ID/g): 0.02 %ID/g | tissue uptake at 8 h ([5]; eye, read-out: eye % ID/g): 0.1 %ID/g | tissue uptake at 12 h ([5]; eye, read-out: eye % ID/g): 0.04 %ID/g | tissue uptake at 1 h [5, 8]: 3.74 %ID/g | tissue uptake at 2 h [5, 8]: 2.67 %ID/g | tissue uptake at 4 h [5, 8]: 1.1 %ID/g | tissue uptake at 6 h [5, 8]: 0.42 %ID/g | tissue uptake at 8 h [5, 8]: 0.38 %ID/g | tissue uptake at 12 h [5, 8]: 0.27 %ID/g | tissue uptake at 24 h [5, 8]: 0.01 %ID/g | tissue uptake at 1 h [5, 9]: 8.39 %ID/g | tissue uptake at 2 h [5, 9]: 5.12 %ID/g | tissue uptake at 4 h [5, 9]: 2.15 %ID/g | tissue uptake at 6 h [5, 9]: 0.78 %ID/g | tissue uptake at 24 h [5, 9]: 0.03 %ID/g | tissue uptake at 8 h [5, 9]: 0.32 %ID/g | tissue uptake at 12 h [5, 9]: 0.14 %ID/g | tissue uptake at 1 h ([5]; liver, read-out: liver % ID/g): 5.68 %ID/g | tissue uptake at 2 h ([5]; liver, read-out: liver % ID/g): 3.35 %ID/g | tissue uptake at 4 h ([5]; liver, read-out: liver % ID/g): 2.1 %ID/g | tissue uptake at 6 h ([5]; liver, read-out: liver % ID/g): 1.1 %ID/g | tissue uptake at 24 h ([5]; liver, read-out: liver % ID/g): 0.1 %ID/g | tissue uptake at 8 h ([5]; liver, read-out: liver % ID/g): 0.71 %ID/g | tissue uptake at 12 h ([5]; liver, read-out: liver % ID/g): 0.3 %ID/g | tissue uptake at 1 h ([5]; lungs, read-out: lungs % ID/g): 6.88 %ID/g | tissue uptake at 2 h ([5]; lungs, read-out: lungs % ID/g): 5.63 %ID/g | tissue uptake at 4 h ([5]; lungs, read-out: lungs % ID/g): 2.84 %ID/g | tissue uptake at 6 h ([5]; lungs, read-out: lungs % ID/g): 0.76 %ID/g | tissue uptake at 8 h ([5]; lungs, read-out: lungs % ID/g): 0.45 %ID/g | tissue uptake at 12 h ([5]; lungs, read-out: lungs % ID/g): 0.11 %ID/g | tissue uptake at 24 h ([5]; lungs, read-out: lungs % ID/g): 0.02 %ID/g | tissue uptake at 1 h [5, 10]: 1.28 %ID/g | tissue uptake at 2 h [5, 10]: 0.79 %ID/g | tissue uptake at 4 h [5, 10]: 0.32 %ID/g | tissue uptake at 6 h [5, 10]: 0.11 %ID/g | tissue uptake at 24 h [5, 10]: 0.006 %ID/g | tissue uptake at 8 h [5, 10]: 0.07 %ID/g | tissue uptake at 12 h [5, 10]: 0.02 %ID/g | tissue uptake at 1 h [5, 11]: 4.06 %ID/g | tissue uptake at 2 h [5, 11]: 2.29 %ID/g | tissue uptake at 4 h [5, 11]: 0.97 %ID/g | tissue uptake at 6 h [5, 11]: 0.41 %ID/g | tissue uptake at 8 h [5, 11]: 0.24 %ID/g | tissue uptake at 12 h [5, 11]: 0.13 %ID/g | tissue uptake at 24 h [5, 11]: 0.03 %ID/g | tissue uptake at 1 h [5, 12]: 0.55 %ID/g | tissue uptake at 2 h [5, 12]: 0.33 %ID/g | tissue uptake at 4 h [5, 12]: 0.24 %ID/g | tissue uptake at 6 h [5, 12]: 0.24 %ID/g | tissue uptake at 24 h [5, 12]: 0.007 %ID/g | tissue uptake at 8 h [5, 12]: 0.15 %ID/g | tissue uptake at 12 h [5, 12]: 0.06 %ID/g | tissue uptake at 1 h [5, 13]: 3.48 %ID/g | tissue uptake at 2 h [5, 13]: 1.95 %ID/g | tissue uptake at 4 h [5, 13]: 0.8 %ID/g | tissue uptake at 6 h [5, 13]: 0.3 %ID/g | tissue uptake at 8 h [5, 13]: 0.16 %ID/g | tissue uptake at 12 h [5, 13]: 0.07 %ID/g | tissue uptake at 24 h [5, 13]: 0.02 %ID/g | tissue uptake at 1 h [5, 14]: 2.32 %ID/g | tissue uptake at 2 h [5, 14]: 1.85 %ID/g | tissue uptake at 4 h [5, 14]: 1.36 %ID/g | tissue uptake at 6 h [5, 14]: 1.17 %ID/g | tissue uptake at 8 h [5, 14]: 0.71 %ID/g | tissue uptake at 12 h [5, 14]: 0.38 %ID/g | tissue uptake at 24 h [5, 14]: 0.03 %ID/g | tissue uptake at 1 h [5, 15]: 4.75 %ID/g | tissue uptake at 2 h [5, 15]: 3.56 %ID/g | tissue uptake at 4 h [5, 15]: 1.5 %ID/g | tissue uptake at 6 h [5, 15]: 0.86 %ID/g | tissue uptake at 8 h [5, 15]: 0.77 %ID/g | tissue uptake at 12 h [5, 15]: 0.3 %ID/g | tissue uptake at 24 h [5, 15]: 0.02 %ID/g | tissue uptake at 1 h ([5]; tumor, read-out: tumor % ID/g): 1.51 %ID/g | tissue uptake at 2 h ([5]; tumor, read-out: tumor % ID/g): 1.29 %ID/g | tissue uptake at 4 h ([5]; tumor, read-out: tumor % ID/g): 0.45 %ID/g | tissue uptake at 6 h ([5]; tumor, read-out: tumor % ID/g): 0.23 %ID/g | tissue uptake at 24 h ([5]; tumor, read-out: tumor % ID/g): 0.009 %ID/g | tissue uptake at 8 h ([5]; tumor, read-out: tumor % ID/g): 0.11 %ID/g | tissue uptake at 12 h ([5]; tumor, read-out: tumor % ID/g): 0.07 %ID/g | tissue uptake ([5]; tumor, only during the 2 hours following injection, Dau, read-out: intratumoral concentration): > 1 %ID/g | darkening of the film at the tumor (B16 murine melanoma; 1 to 4 h after i.v.): considerable and inhomogeneous darkening of the film | tumor visibility on autoradiogram (B16 murine melanoma; 24 h after i.v.): still visible | LD50 [6]: 90 mg/kg | LD 0 [7]: 60 mg/kg | LD 100 [7]: 150 mg/kg
